# Residues, ends and D or L forms follow the SMILES beside them.
# Legend:
# Fusarium solani [1] = test: Microdilution broth assay; assay type: cell-based; set-up: MIC against F. solani in PDB (n): unit not given beside the values
# Description: (§1) Microdilution broth and agar assays were used to assess the antifungal activity of the cyclic decapeptides in liquid media and on solid (gel) media, respectively.
# (§2) The antibacterial activity of the tyrocidines and gramicidin S against all the bacteria tested was determined by the methods described by Du Toit E A and Rautenbach M (2000) J. Microbiol. Methods, 42, 159-165. The antifungal activity of the tyrocidines against all the […] tested was determined by the methods described by Troskie A M, Vlok N M and Rautenbach M (2012) J. Microbiol. Methods, 91, 551-558.
# [2] = test system: Aspergillus fumigatus ATCC 204305; test: Microdilution broth assay; assay type: cell-based
# Description: as §1, §2
# Fusarium oxysporum = test: Microdilution broth assay; assay type: cell-based
# Description: as §1, §2
# Fusarium verticilliodes = test: Microdilution broth assay; assay type: cell-based
# Description: as §1, §2
# [3] = test system: Penicillium digitatum (citrus isolate); test: Microdilution broth assay; assay type: cell-based
# Description: as §1, §2
# [4] = test system: Penicillium expansum (peach isolate); test: Microdilution broth assay; assay type: cell-based
# Description: as §1, §2
# [5] = test system: Penicillium glabrum (wood isolate); test: Microdilution broth assay; assay type: cell-based
# Description: as §1, §2
# Fusarium solani [6] = test: Agar (gel) assay; assay type: cell-based
# Description: as §1, §2
# Botrytis cinerea = test: Agar (gel) assay; assay type: cell-based; set-up: MIC + SEM: unit not given beside the values
# Description: as §1, §2
# [7] = test system: Cylindrocarpon liriodendri; test: Agar assay; assay type: cell-based; set-up: unit not given beside the values
# Description: as §1, §2
# Escherichia coli HB101 = test: Agar assay; assay type: cell-based; set-up: unit not given beside the values
# Description: as §1, §2
# [8] = test system: Micrococcus luteus NCTG 8340; test: Agar assay; assay type: cell-based; set-up: unit not given beside the values
# Description: as §1, §2
# Phomopsis viticola = test: Agar assay; assay type: cell-based; set-up: unit not given beside the values
# Description: as §1, §2
# [9] = test system: Talaromyces ramulosus (peach isolate); test: Agar assay; assay type: cell-based; set-up: unit not given beside the values
# Description: as §1, §2
# [10] = test system: Penicillium digitatum (citrus isolate); test: Agar assay; assay type: cell-based
# Description: as §1, §2
# [11] = test system: Phaeoacremonium aleophilum; test: Agar assay; assay type: cell-based
# Description: as §1, §2
# P. digitatum = test: Preliminary trials on oranges, wound infections; assay type: in vivo; settings: 50 mg/L (50 ppm)
# Description: Promising results in preliminarily trials on oranges have also been observed, with 50% and 80% less wound infections by P. digitatum using 50 mg/L (50 ppm) Trc mix and GS, respectively.
# fungal pathogens [12] = test: Sterilization of field-gathered grapevine material for plant cultures; assay type: in vivo; settings: in the washing step or in the growth media; without a major detrimental effect to the plant material; results not shown
# Description: (§3) The Trc mix and GS were also tested for use in the sterilization of field-gathered grapevine material for use in plant cultures.
# fungal pathogens [13] = test: Plant culture assay, fungal pathogens in growth media; assay type: in vivo; settings: without a major detrimental effect to the plant material
# Description: as §3
# (§4) Grapevine tissue culture plants were transferred to MS medium containing GS or Trc mix at a concentration of 15 μg/mL and incubated at 25° C. with a 16 h/8 h day night cycle. The growth and development of the grapevine plantlets were monitored and compared to the control set of plants which were maintained on MS-medium without GS or Trc mix.
# [14] = test system: African daisy (Gerbera hybrid); test: Cut flower trials, Gerbera; assay type: in vivo; settings: GS at 35 mg/L alone or in the GS+Trc mix
# Description: Water uptake was initially better than observed for a commercial product for cut-flower preservation (FIG. 4A).
# (§5) Cut flower trials on mini hybrids of the African daisy (Gerbera hybrid) and blue larkspur (Delphinium hybrid) were conducted on 3-day old flowers. Flowers were prepared by cutting 3-5 cm of each stem and each placed separately in a measuring flask with 100 mL containing either no additive, Trc mix (35 mg/L for Gerbera and 25 mg/l for Delphinium), GS (35 mg/L for Gerbera and 25 mg/L for Delphinium), Trc mix+GS (combined 70 mg/L for Gerbera and combined 50 mg/L for Delphinium) or commercial additive for flower preservation. Flowers (6-12 per trial) were kept in a room with both natural and fluorescent lighting (16 hours light/day) at 22±1° C. The volume of water was monitored every 24 hours and noted for each flower.
# (§6) Flower condition was rated from 0 to 5, with 0=dead, 1=flower petals dehydrated, closed and drooping, 2=flower still partially open but dehydrated and drooping, 3=flower starts drooping, petals soft, 4=some petals becoming soft, flower still in good condition and 5=flower is in pristine condition with taught petals and stem/leaves.
# Delphinium flowers = test: Cut flower trials, Delphinium; assay type: in vivo, Delphinium hybrid
# Description: Trials with Delphinium flowers and 25 mg/L and 50 mg of GS or Trc mix and GS+Trc mix (50 mg/L combined concentration), were conducted.
# as §5, §6
# bacteria = test: Sterilization of field-gathered grapevine material, antibacterial efficacy; assay type: in vivo; settings: selected cases
# Description: as §3
# [15] = test system: Grapevine tissue culture plants; test: Plant culture assay, growth and development of plantlets; assay type: in vivo; settings: 15 mg/L in MS medium
# Description: as §3, §4
compound,measurement,setting,value
"CC(C)C[C@@H]1NC(=O)[C@H](CCCN)NC(=O)[C@H](C(C)C)NC(=O)C2CCCN2C(=O)[C@@H](Cc2ccccc2)NC(=O)[C@H](CC(C)C)NC(=O)[C@H](CCCN)NC(=O)[C@H](C(C)C)NC(=O)C2CCCN2C(=O)[C@@H](Cc2ccccc2)NC1=O (some centres unmarked) [GS, Cyclo-(VOLfPVOLfP)] (HELM PEPTIDE1{L.[dF].[O=C(C1CCCN1[*:1])[*:2]].V.[Orn].L.[dF].[O=C(C1CCCN1[*:1])[*:2]].V.[Orn]}$PEPTIDE1,PEPTIDE1,1:R1-10:R2$$$V2.0)",MIC + SEM,"Fusarium solani [1]; Broth, Fusarium solani",2.5 ± 0.1
same,MIC against F. solani in PDB (n),Fusarium solani [1]; potato dextrose broth (low salt PDB),2.2 ± 0.1
same,MIC + SEM,[2],8.6 ± 0.7
same,MIC + SEM,Fusarium oxysporum,2.6 ± 0.2
same,MIC + SEM,Fusarium verticilliodes,3.5 ± 0.3
same,MIC + SEM,[3],3-4
same,MIC + SEM,[4],3.7 ± 0.3
same,MIC + SEM,[5],4.0 ± 0.5
same,MIC + SEM,"Fusarium solani [6]; Agar, Fusarium solani",5.5 ± 1.3
same,IC50 ± SEM,Fusarium solani [6]; F. solani on PDA,4.9 ± 1.2 µg/mL
same,MIC ± SEM,Fusarium solani [6]; F. solani on PDA,6.3 ± 1.5 µg/mL
same,IC50 ± SEM,Fusarium solani [6]; F. solani on YTSA,9.6 ± 0.5 µg/mL
same,MIC ± SEM,Fusarium solani [6]; F. solani on YTSA,19.9 ± 1.2 µg/mL
same,MIC + SEM,"Botrytis cinerea; Agar, Botrytis cinerea",2.5 ± 0.3
same,IC50 ± SEM,Botrytis cinerea; B. cinerea on PDA,2.0 ± 0.3 µg/mL
same,MIC ± SEM,Botrytis cinerea; B. cinerea on PDA,2.8 ± 0.3 µg/mL
same,IC50 ± SEM,Botrytis cinerea; B. cinerea on YTSA,4.5 ± 1.1 µg/mL
same,MIC ± SEM,Botrytis cinerea; B. cinerea on YTSA,8.2 ± 1.8 µg/mL
same,MIC + SEM,[7],<10
same,MIC + SEM,Escherichia coli HB101,40
same,MIC + SEM,[8],6
same,MIC + SEM,Phomopsis viticola,<10
same,MIC + SEM,[9],3.6 ± 0.3
same,MIC + SEM,[10],<20
same,MIC + SEM,[11],<10
same,less wound infections by P. digitatum,P. digitatum,80%
same,concentration sufficient to eliminate fungal pathogens,fungal pathogens [12],20 mg/L
same,concentration sufficient to eliminate fungal pathogens in the growth media,fungal pathogens [13],15 mg/L
same,benefit to flower survival,[14],did not benefit flower survival
same,phytotoxicity,[14],may have led to some phytotoxicity
same,phytotoxicity,Delphinium flowers; 25 mg/L,did not show overt phytotoxicity
same,phytotoxicity,Delphinium flowers; 50 mg/L,proved to be phytotoxic
same,antibacterial efficacy,bacteria,good antibacterial activity
same,effect on root growth,[15],root growth was visibly affected
same,effect on plant culture survival and growth,[15]; vs control plants,enhanced plant culture survival and foliage growth

# From patent US20150030566A1, “ANTIMICROBIAL PEPTIDE COMPOSITIONS FOR PLANTS” (Stellenbosch University, priority 2012, published 2015)
